Tests used:
AURKB (Aurora B) = AURKB (Aurora B) (Homo sapiens (Human), UniProt Q96GD4); assay: Aurora-B enzyme assay (Z'-LYTE); format: biochemical; details: 75 μM ATP, arithmetic mean of two or more experiments; for IC50: read-out: AurB enz pIC50 (converted)
JAK1 = JAK1 (Homo sapiens (Human), UniProt P23458); assay: JAK1 enzyme assay (Z'-LYTE); format: biochemical; details: 75 μM ATP, arithmetic mean of two or more experiments; for IC50: read-out: JAK1 enz pIC50 (converted)
[1] = target: Full length human DNAPK protein (Homo sapiens (Human), UniProt P78527); assay: DNAPK enzyme potency assay (DNA-PK enz), TR-FRET; format: biochemical; details: arithmetic mean of two or more experiments, 18 μM ATP; for IC50: read-out: DNA-PK enz pIC50 (converted)
Text: The following assays were used to measure the effects of the compounds described herein: a) DNAPK enzyme potency assay; b) DNAPK cellular potency assay. During the description of the assays, generally: • i. The following abbreviations have been used; DMSO=Dimethyl Sulphoxide; DTT=Dithiothreitol; EDTA=Ethylenediaminetetraacetic Acid, TR-FRET=Time Resolved Fluorescence Resonance Energy Transfer, ATP=Adenosine triphosphate, DTT=Dithiothreitol, DNA=Deoxyribonucleic acid, HEPES=(2-hydroxyethyl)-1-piperazineethanesulfonic acid • ii. […] Assay a): DNAPK Enzyme Potency Assay (DNA-PK Enz)
The inhibitory activity of compounds against DNAPK was determined by TR-FRET measuring a fluorescent labelled peptide substrate converting to a phosphorylated product. Fluorescently tagged peptide substrate were purchased from Thermo Fisher Scientific. 12 point half-log compound concentration-response curves, with a top concentration of 100 μM were generated from 10 mM stocks of compound solubilised in DMSO using an Echo 555 (Labcyte Inc., Sunnyvale, CA). All assays were preformed in white Greiner 1536 well low volume plates (Greiner Bio-One, UK), in a total reaction volume of 3 μL and 1% (v/v) final DMSO concentration. Enzymes and substrates were added separately to the compound plates and incubated at room temperature. The kinase reaction was then quenched by the addition of 3 μL of stop buffer. Stopped assay plates were read using a BMG Pherastar. IC50 values were calculated using a Genedata Screener® software (Genedata, Inc., Basel, Switzerland).
Full length human DNAPK protein was purified from HeLa cell extract by ion exchange. Initially DNAPK protein was incubated with compound for 30 minutes at room temperature in reaction buffer (50 mM Hepes pH 7.5, 0.01% Brij-35, 10 mM MgCl2, 1 mM EGTA, 1 mM DTT, […] Calf Thymus DNA). The reaction was then initiated by the addition of ATP and fluorescently tagged peptide substrate (Fluorescein-[…], Thermo Fisher Scientific). […] The reaction was incubated for a further hour and the plates were read on a BMG Pherastar.
Data was analysed and IC50 values were calculated using Genedata Screener® software (Genedata, Inc., Basel, Switzerland).

DNAPK = DNAPK (Homo sapiens (Human), UniProt P78527); assay: DNAPK cellular potency assay (DNA-PK cell), pS2056-DNAPK ELISA in irradiated A549 cells; format: cell-based; details: 8 Gy radiation, arithmetic mean of two or more experiments, read-out: DNA-PK cell pIC50 (converted)
JAK2 = JAK2 (Homo sapiens (Human), UniProt O60674); assay: JAK2 enzyme assay (Z'-LYTE); format: biochemical; details: 25 μM ATP, arithmetic mean of two or more experiments; for IC50: read-out: JAK2 enz pIC50 (converted)
Chain of JAK2 (O60674 whole entry): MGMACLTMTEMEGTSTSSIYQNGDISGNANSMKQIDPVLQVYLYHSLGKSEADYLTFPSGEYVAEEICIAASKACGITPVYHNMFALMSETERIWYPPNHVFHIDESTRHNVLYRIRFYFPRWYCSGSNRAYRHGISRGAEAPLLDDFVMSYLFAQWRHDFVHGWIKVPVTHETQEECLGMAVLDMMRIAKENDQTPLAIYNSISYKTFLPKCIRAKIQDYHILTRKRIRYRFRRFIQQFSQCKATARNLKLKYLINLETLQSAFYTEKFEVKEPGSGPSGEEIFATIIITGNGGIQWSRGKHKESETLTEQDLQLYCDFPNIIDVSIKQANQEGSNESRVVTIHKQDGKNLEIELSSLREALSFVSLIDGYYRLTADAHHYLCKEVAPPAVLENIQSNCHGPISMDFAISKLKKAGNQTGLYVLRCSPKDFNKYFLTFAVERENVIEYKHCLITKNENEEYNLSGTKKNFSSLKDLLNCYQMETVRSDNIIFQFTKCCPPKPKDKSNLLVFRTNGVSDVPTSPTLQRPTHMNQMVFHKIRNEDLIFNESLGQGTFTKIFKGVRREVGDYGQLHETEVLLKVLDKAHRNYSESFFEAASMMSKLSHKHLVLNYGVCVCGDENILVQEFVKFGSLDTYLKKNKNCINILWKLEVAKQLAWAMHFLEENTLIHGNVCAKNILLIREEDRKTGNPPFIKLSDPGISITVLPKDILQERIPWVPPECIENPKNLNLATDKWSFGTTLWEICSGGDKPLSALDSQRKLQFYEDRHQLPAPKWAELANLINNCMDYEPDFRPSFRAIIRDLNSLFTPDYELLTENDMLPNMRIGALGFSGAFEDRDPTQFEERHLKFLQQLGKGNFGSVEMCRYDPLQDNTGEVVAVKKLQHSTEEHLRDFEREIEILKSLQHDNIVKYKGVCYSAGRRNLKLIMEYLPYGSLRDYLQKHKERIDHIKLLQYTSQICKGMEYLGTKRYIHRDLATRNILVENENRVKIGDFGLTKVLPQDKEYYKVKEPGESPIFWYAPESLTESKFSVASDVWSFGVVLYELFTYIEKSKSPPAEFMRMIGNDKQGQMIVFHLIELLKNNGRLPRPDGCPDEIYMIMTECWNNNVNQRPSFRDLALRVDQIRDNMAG

Chain of AURKB (Aurora B) (Q96GD4 whole entry): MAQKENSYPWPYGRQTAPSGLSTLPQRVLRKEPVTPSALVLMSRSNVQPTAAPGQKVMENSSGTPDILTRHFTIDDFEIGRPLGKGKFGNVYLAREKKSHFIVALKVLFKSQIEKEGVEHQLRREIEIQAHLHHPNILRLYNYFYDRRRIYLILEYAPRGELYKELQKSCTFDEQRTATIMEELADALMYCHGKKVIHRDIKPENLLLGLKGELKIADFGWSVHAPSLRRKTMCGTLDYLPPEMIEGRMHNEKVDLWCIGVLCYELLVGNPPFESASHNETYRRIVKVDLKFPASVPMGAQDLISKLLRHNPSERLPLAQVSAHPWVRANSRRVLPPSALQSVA
Chain of JAK1 (P23458 whole entry): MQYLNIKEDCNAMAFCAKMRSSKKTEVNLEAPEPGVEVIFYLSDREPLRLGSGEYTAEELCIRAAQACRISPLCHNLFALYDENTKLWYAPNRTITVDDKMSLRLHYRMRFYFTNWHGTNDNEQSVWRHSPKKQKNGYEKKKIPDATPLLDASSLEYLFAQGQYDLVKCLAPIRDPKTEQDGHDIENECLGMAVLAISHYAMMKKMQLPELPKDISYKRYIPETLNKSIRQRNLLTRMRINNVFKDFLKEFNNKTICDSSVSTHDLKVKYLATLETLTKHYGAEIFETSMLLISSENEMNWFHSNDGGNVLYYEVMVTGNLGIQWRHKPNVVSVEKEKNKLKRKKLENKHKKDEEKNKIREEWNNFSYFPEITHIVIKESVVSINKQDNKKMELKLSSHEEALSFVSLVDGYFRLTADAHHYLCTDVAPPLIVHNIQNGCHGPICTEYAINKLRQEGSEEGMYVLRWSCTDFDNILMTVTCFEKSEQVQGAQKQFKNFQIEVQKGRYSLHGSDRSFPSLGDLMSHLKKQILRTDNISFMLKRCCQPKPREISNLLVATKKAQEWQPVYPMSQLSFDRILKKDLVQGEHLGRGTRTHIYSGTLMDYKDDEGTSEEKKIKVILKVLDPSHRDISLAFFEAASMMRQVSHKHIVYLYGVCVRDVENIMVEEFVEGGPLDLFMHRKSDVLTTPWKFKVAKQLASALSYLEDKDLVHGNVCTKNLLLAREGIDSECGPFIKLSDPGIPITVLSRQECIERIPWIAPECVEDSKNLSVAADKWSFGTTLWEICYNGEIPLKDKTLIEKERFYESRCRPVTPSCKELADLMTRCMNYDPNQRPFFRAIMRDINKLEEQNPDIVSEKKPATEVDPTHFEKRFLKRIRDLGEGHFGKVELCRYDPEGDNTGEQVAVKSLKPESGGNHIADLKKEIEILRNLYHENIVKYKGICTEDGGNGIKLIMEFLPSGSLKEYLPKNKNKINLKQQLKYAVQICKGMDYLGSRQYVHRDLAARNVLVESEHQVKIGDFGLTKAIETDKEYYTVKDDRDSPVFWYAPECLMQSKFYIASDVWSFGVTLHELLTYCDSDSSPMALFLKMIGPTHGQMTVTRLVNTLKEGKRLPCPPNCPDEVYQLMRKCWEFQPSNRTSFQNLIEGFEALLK

| SMILES | AurB enz pIC50 (AURKB (Aurora B)) | JAK1 enz pIC50 (JAK1) | DNA-PK enz pIC50 [1] | IC50 (DNAPK) | JAK2 enz pIC50 (JAK2) | IC50 (AURKB (Aurora B)) | IC50 (JAK1) | IC50 [1] | IC50 (JAK2) |
| --- | --- | --- | --- | --- | --- | --- | --- | --- | --- |
| Cc1cc2nnccc2cc1Nc1ncc2c(n1)n([C@@H]1CCCOC1)c(=O)n2C [Example 25, (R)-7-methyl-2-((7-methylcinnolin-6-yl)amino)-9-(tetrahydro-2H-pyran-3-yl)-7,9-dihydro-8H-purin-8-one] | <5 | <5 | 9.7 | 39.8 nM | <5 |  |  |  |  |
| CC(=O)N1CCC(n2c(=O)n(C)c3cnc(Nc4cc5cncnc5cc4C)nc32)CC1 [Example 3, 9-(1-acetylpiperidin-4-yl)-7-methyl-2-((7-methylquinazolin-6-yl)amino)-7,9-dihydro-8H-purin-8-one] | <5 | <5 | >10 | 63.1 nM | <5 |  |  |  |  |
| Cc1cc2ncccc2cc1Nc1ncc2c(n1)n(C1CCS(=O)(=O)CC1)c(=O)n2C [Example 35, 9-(1,1-dioxidotetrahydro-2H-thiopyran-4-yl)-7-methyl-2-((7-methylquinolin-6-yl)amino)-7,9-dihydro-8H-purin-8-one] | <5 | <5 | >10 | 39.8 nM | <5 |  |  |  |  |
| Cc1cc2nnccc2cc1Nc1ncc2c(n1)n([C@@H]1CCOC1)c(=O)n2C [Example 23, (R)-7-methyl-2-((7-methylcinnolin-6-yl)amino)-9-(tetrahydrofuran-3-yl)-7,9-dihydro-8H-purin-8-one] | <5 | <5 | 9.4 | 63.1 nM | <5 |  |  |  |  |
| Cc1cc2ncccc2cc1Nc1ncc2c(n1)n(C1CCN(CCO)CC1)c(=O)n2C [Example 48, 9-(1-(2-hydroxyethyl)piperidin-4-yl)-7-methyl-2-((7-methylquinolin-6-yl)amino)-7,9-dihydro-8H-purin-8-one] | <5 | <5 | 9.0 | 316 nM | <5 |  |  |  |  |
| Cc1cnc2cc(C)c(Nc3ncc4c(n3)n(C3CCOCC3)c(=O)n4C)cc2n1 [Example 34, 2-((3,7-dimethylquinoxalin-6-yl)amino)-7-methyl-9-(tetrahydro-2H-pyran-4-yl)-7,9-dihydro-8H-purin-8-one] |  |  |  | 31.6 nM |  | > 10000 nM | > 10000 nM | < 0.1 nM | > 10000 nM |
| Cc1cc2nccnc2cc1Nc1ncc2c(n1)n([C@H]1CC[C@@](C)(O)CC1)c(=O)n2C [Example 19, 9-((1s,4s)-4-hydroxy-4-methylcyclohexyl)-7-methyl-2-((7-methylquinoxalin-6-yl)amino)-7,9-dihydro-8H-purin-8-one] |  |  |  | 25.1 nM |  | > 10000 nM | > 10000 nM | 0.158 nM | > 10000 nM |
| Cc1cc2nccnc2cc1Nc1ncc2c(n1)n([C@]1(C)CC[C@H](O)CC1)c(=O)n2C [Example 20, 9-((1s,4s)-4-hydroxy-1-methylcyclohexyl)-7-methyl-2-((7-methylquinoxalin-6-yl)amino)-7,9-dihydro-8H-purin-8-one] | <5 | <5 | 10.0 | 20 nM | <5 |  |  |  |  |
| Cc1cc2ncccc2cc1Nc1ncc2c(n1)n([C@H]1CC[C@@](C)(N)CC1)c(=O)n2C [Example 39, 9-((1s,4s)-4-amino-4-methylcyclohexyl)-7-methyl-2-((7-methylquinolin-6-yl)amino)-7,9-dihydro-8H-purin-8-one] |  |  |  | 79.4 nM |  | > 10000 nM | > 10000 nM | 1 nM | > 10000 nM |
| CC(=O)N1CCC(n2c(=O)n(C)c3cnc(Nc4cc5ccnnc5cc4C)nc32)CC1 [Example 1, 9-(1-acetylpiperidin-4-yl)-7-methyl-2-((7-methylcinnolin-6-yl)amino)-7,9-dihydro-8H-purin-8-one] | <5 | <5 | 10.0 | 200 nM | <5.2 |  |  |  |  |
| Cc1cc2nccnc2cc1Nc1ncc2c(n1)n([C@H]1CCCOC1)c(=O)n2C [Example 28, (S)-7-methyl-2-((7-methylquinoxalin-6-yl)amino)-9-(tetrahydro-2H-pyran-3-yl)-7,9-dihydro-8H-purin-8-one] | <5 | <5 | >10 | 15.8 nM | <5 |  |  |  |  |
| Cc1cc2nnccc2cc1Nc1ncc2c(n1)n([C@H]1CC[C@H](O)CC1)c(=O)n2C [Example 7, 9-((1r,4r)-4-hydroxycyclohexyl)-7-methyl-2-((7-methylcinnolin-6-yl)amino)-7,9-dihydro-8H-purin-8-one] | <5 | <5 | >10 | 50.1 nM | <5 |  |  |  |  |

From patent US11884671B2, “Purinone compounds and their use in treating cancer” (ASTRAZENECA AB, priority 2018, dated 2024)
